# Assay results taken from US20090018111A1, “Novel Antimicrobial Medicament” (priority 2004, published 2009).
# Like-named read-outs stand apart in the source and are kept apart here.
# What was measured:
# M. catarrhalis ATCC25238 = assay: Sensitivity test (agar dilution); format: cell-based, Moraxella catarrhalis; settings: Moraxella catarrhalis, M. catarrhalis ATCC25238
# Protocol: (§1) The antibacterial activities were tested against various 18 bacteria (27 standard strains) which are representative bacteria caused clinically infectious disease (Staphylococcus aureus 3 strains, Staphylococcus epidermidis 1 strain, Micrococcus luteus 1 strain, Streptococcus pyogenes 1 strain, Enterococcus faecalis 1 strain, Enterococcus faecium 1 strain, Bacillus subtilis 1 strain, Escherichia coli 3 strains, Klebsiella pneumoniae 1 strain, Proteus mirabilis 1 strain, Proteus vulgaris 2 strains, Pseudomonas aeruginosa 3 strains, Serratia marcescens 2 strains, Enterobacter aerogenes 1 strain, Stenotrophomonas maltophilia 1 strain, Enterobacter cloacae 1 strain, Citrobacter freundii 1 strain, Moraxella catarrhalis 2 strains).
# (§2) According to the standard method of Japan Chemotherapeutic Society (Chemotherapy, vol. […], p 76-79 (1981)) the test was carried out using the agar dilution method. After dissolving test samples in distilled water, agar medium containing the test samples was prepared in such a manner that the final concentration became twice serial dilution by pouring serially diluted combination drug solution or a single drug solution into agar medium. As agar medium was used Mueller Hinton Agar medium (MHA). Then, each strain was cultivated over night at 37° C. in an incubator and suspended in buffered saline solution with gelatin (BSG) in the concentration of about 10^6 CFU/ml. The suspension (about 5 μl) containing test strains was inoculated to the medium containing the test samples by Micro Planter.
# (§3) When the sample is subjected to sensitivity test, this mixed solution was diluted by twice serial dilution method.
# (§4) Furthermore, when the drug is solely used, each test sample was used as it is, and diluted by twice serial dilution method from the maximum concentration to the minimum concentration.
# (§5) FIC index based on MIC value was calculated. […] Namely, when FIC index calculated by the following formula is equal or less than 1, the enhanced effect of the combination drug in said ratio is considered as positive. When FIC index is over 1, the enhanced effect of the combination drug in said ratio is considered as negative.
# (§6) Formula of FIC index: FIC index=(MIC of Drug A in combination/MIC of Drug A alone)+(MIC of Drug B in combination/MIC of Drug B alone) N.C. in tables means being not calculated.
# M. catarrhalis ATCC8176 = assay: Sensitivity test (agar dilution); format: cell-based, Moraxella catarrhalis; settings: Moraxella catarrhalis, M. catarrhalis ATCC8176
# Protocol: as §1, §2, §3, §4, §5, §6
# [1] = test system: S. aureus MS94088 (hetero-MRSA); assay: Sensitivity test (agar dilution); format: cell-based, Staphylococcus aureus; settings: Staphylococcus aureus, MRSA, S. aureus MS94088 (hetero-MRSA)
# Protocol: as §1, §2, §3, §4, §5, §6
# S. aureus 209P = assay: Sensitivity test (agar dilution); format: cell-based, Staphylococcus aureus; settings: Staphylococcus aureus, 209P, S. aureus 209P
# Protocol: as §1, §2, §3, §4, §5, §6
# E. faecium ATCC19434 = assay: Sensitivity test (agar dilution); format: cell-based, Enterococcus faecium; settings: Enterococcus faecium, E. faecium ATCC19434
# Protocol: as §1, §2, §3, §4, §5, §6
# E. aerogenes ATCC13048 = assay: Sensitivity test (agar dilution); format: cell-based, Enterobacter aerogenes; settings: Klebsiella aerogenes, E. aerogenes ATCC13048
# Protocol: as §1, §2, §3, §4, §5, §6
# P. mirabiris GN2425 = assay: Sensitivity test (agar dilution); format: cell-based, Proteus mirabilis; settings: Proteus mirabilis, P. mirabiris GN2425
# Protocol: as §1, §2, §3, §4, §5, §6
# E. coli ML1410 RP4 = assay: microbe, parasite or virus in culture; format: cell-based, Escherichia coli; settings: Escherichia coli, E. coli ML1410 RP4
# Protocol: as §1, §2, §3, §4, §5, §6
# B. subtilis ATCC6633 = assay: Sensitivity test (agar dilution); format: cell-based, Bacillus subtilis; settings: Bacillus subtilis, B. subtilis ATCC6633
# Protocol: as §1, §2, §3, §4, §5, §6
# C. freundii GN346 = assay: Sensitivity test (agar dilution); format: cell-based, Citrobacter freundii; settings: Citrobacter freundii, C. freundii GN346
# Protocol: as §1, §2, §3, §4, §5, §6
# S. marcescens X 100 = assay: Sensitivity test (agar dilution); format: cell-based, Serratia marcescens; settings: Serratia marcescens, S. marcescens X 100
# Protocol: as §1, §2, §3, §4, §5, §6
# S. marcescens GN6473 = assay: Sensitivity test (agar dilution); format: cell-based, Serratia marcescens; settings: Serratia marcescens, S. marcescens GN6473
# Protocol: as §1, §2, §3, §4, §5, §6
# S. maltophilia IID1275 = assay: Sensitivity test (agar dilution); format: cell-based, Stenotrophomonas maltophilia; settings: Stenotrophomonas maltophilia, S. maltophilia IID1275
# Protocol: as §1, §2, §3, §4, §5, §6
# [2] = Concomitant (PAPM:SM = 1:1), read-out: MIC concomitant
# [3] = drug alone, read-out: MIC alone
smiles,measurement,setting,value
"CC(=N)N1CC[C@H](SC2=C(C(=O)O)N3C(=O)[C@H]([C@@H](C)O)[C@H]3C2)C1 [PAPM, panipenem]",MIC,"M. catarrhalis ATCC25238; ATCC25238, Concomitant (PAPM:SM = 1:1), read-out: MIC concomitant",≤ 0.002 µg/mL
same,MIC,"M. catarrhalis ATCC25238; ATCC25238, drug alone, read-out: MIC alone",0.008 µg/mL
same,MIC,"M. catarrhalis ATCC8176; ATCC8176, Concomitant (PAPM:SM = 1:1), read-out: MIC concomitant",≤ 0.002 µg/mL
same,MIC,"M. catarrhalis ATCC8176; ATCC8176, drug alone, read-out: MIC alone",0.008 µg/mL
same,MIC,[1]; [2],0.25 µg/mL
same,MIC,[1]; [3],0.5 µg/mL
same,MIC,S. aureus 209P; [2],0.004 µg/mL
same,MIC,S. aureus 209P; [3],0.031 µg/mL
same,MIC,"E. faecium ATCC19434; ATCC19434, Concomitant (PAPM:SM = 1:1), read-out: MIC concomitant",0.125 µg/mL
same,MIC,"E. faecium ATCC19434; ATCC19434, drug alone, read-out: MIC alone",8 µg/mL
same,MIC,"E. aerogenes ATCC13048; ATCC13048, Concomitant (PAPM:SM = 1:1), read-out: MIC concomitant",0.25 µg/mL
same,MIC,"E. aerogenes ATCC13048; ATCC13048, drug alone, read-out: MIC alone",0.5 µg/mL
same,MIC,"P. mirabiris GN2425; GN2425, Concomitant (PAPM:SM = 1:1), read-out: MIC concomitant",0.125 µg/mL
same,MIC,"P. mirabiris GN2425; GN2425, drug alone, read-out: MIC alone",1 µg/mL
same,MIC,"E. coli ML1410 RP4; ML1410RP4, read-out: MIC alone, drug alone",0.5 µg/mL
same,MIC,"E. coli ML1410 RP4; ML1410RP4, read-out: MIC concomitant, Concomitant (PAPM:SM = 1:1)",0.125 µg/mL
same,MIC,"B. subtilis ATCC6633; ATCC6633, Concomitant (PAPM:SM = 1:1), read-out: MIC concomitant",≤ 0.002 µg/mL
same,MIC,"B. subtilis ATCC6633; ATCC6633, drug alone, read-out: MIC alone",0.016 µg/mL
same,MIC,"C. freundii GN346; GN346, Concomitant (PAPM:SM = 1:1), read-out: MIC concomitant",0.25 µg/mL
same,MIC,"C. freundii GN346; GN346, drug alone, read-out: MIC alone",0.5 µg/mL
same,MIC,"S. marcescens X 100; X100, Concomitant (PAPM:SM = 1:1), read-out: MIC concomitant",0.125 µg/mL
same,MIC,"S. marcescens X 100; X100, drug alone, read-out: MIC alone",0.25 µg/mL
same,MIC,"S. marcescens GN6473; GN6473, Concomitant (PAPM:SM = 1:1), read-out: MIC concomitant",0.25 µg/mL
same,MIC,"S. marcescens GN6473; GN6473, drug alone, read-out: MIC alone",0.5 µg/mL
same,MIC,"S. maltophilia IID1275; IID1275, Concomitant (PAPM:SM = 1:1), read-out: MIC concomitant",> 32 µg/mL
same,MIC,"S. maltophilia IID1275; IID1275, drug alone, read-out: MIC alone",> 32 µg/mL
